Read-outs that look alike come from different tables or passages of the source. Values belong to the compound of their own block, whether it stands above or below them.
Assays:
Format in all cases: biochemical
FGFR1 = biological target: T1, FGFR1 (Homo sapiens, UniProt P11362); test: Inhibition of FGFR1 kinase (fluorescence polarization kinase assay)
T1 construct: purchased Upstate Company
Description: (§1) Inhibition activities of kinases of the inventive compounds (test compounds) prepared in the Examples were assessed and represented as IC50 values.
(§2) Kinases used in Test Examples 1 to 3 were purchased from Upstate Company.
(§3) 100 mM HEPES (pH 7.4), 25 mM MgCl2, 10 mM MnCl2 and 250 μM Na3VO4 were mixed to prepare a kinase buffer. Each of kinases to be measured was diluted to a concentration of 25˜300 ng per one reaction according to its activity with the kinase buffer. Also, each of the test compounds was serially diluted to a concentration starting from 100 nM up to 0.1 nM with the kinase buffer. 10 μl of the serially diluted solution of each of the test compounds and 10 μl of the diluted kinase were added to each well of a 96-well microplate, and the plate was incubated at room temperature for 10 mins. 10 μl of a substrate and 10 μl of ATP were successively added thereto to initiate a kinase reaction, and the resulting mixture was incubated at room temperature for 1 hour. The ATP was used in a form of a solution diluted to a concentration determined according to a kinase's Km value with distilled water. 10˜100 ng/mL poly(Glu, Tyr) 4:1 (Sigma) was used as the substrate. 10 μl of 6 mM EDTA was added to each well and stirred for 5 mins to terminate the kinase reaction. For a measurement of phosphorylation degree, 50 μl of a solution containing anti-phosphotyrosine antibody and fluorescein-labeled phosphopeptide was added to the reaction mixture, followed by incubating for 30 mins. The FP (fluorescence polarization) value of each well was determined with a Victor™ D fluorescence meter (Perkin Elmer Lifesciences).
(§4) IC50, the concentration at which 50% inhibition occurs, was evaluated based on the difference between the final concentration of the test cells and the initial concentration of the cells incubated in a well not-treated with the test compound which was regarded as 100%. IC50 values of the test compounds on the FGFR kinase were shown in Table 2, and those of the test compound obtained in Example 177 on various kinases, in Table 3.

FGFR3 = biological target: T2, FGFR3 (Homo sapiens, UniProt P22607); test: Inhibition of FGFR3 kinase (fluorescence polarization kinase assay)
T2 construct: purchased Upstate Company
T2 sequence (P22607 23-806, species assumed): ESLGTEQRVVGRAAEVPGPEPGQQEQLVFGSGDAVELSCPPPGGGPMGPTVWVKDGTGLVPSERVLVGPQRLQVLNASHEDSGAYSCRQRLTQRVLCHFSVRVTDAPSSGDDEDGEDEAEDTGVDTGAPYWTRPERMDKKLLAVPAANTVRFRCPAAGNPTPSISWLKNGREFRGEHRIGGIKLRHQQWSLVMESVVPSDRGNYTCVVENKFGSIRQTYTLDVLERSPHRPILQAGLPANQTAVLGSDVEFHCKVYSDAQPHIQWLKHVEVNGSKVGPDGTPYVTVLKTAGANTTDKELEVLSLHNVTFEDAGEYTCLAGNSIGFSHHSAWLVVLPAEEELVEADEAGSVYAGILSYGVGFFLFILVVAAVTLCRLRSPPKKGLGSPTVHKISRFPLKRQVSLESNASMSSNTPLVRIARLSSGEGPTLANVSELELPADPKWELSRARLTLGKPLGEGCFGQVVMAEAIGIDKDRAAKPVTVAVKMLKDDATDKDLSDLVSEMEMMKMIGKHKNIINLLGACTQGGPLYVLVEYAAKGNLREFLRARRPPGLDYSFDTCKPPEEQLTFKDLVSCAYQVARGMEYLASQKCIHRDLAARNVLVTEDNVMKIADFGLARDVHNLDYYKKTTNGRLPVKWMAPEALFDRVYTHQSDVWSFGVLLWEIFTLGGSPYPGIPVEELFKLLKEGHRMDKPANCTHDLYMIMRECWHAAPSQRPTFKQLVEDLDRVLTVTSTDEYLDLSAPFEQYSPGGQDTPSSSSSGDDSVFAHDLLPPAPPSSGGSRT
Description: as §1, §2, §3, §4

EGFR = biological target: T3, EGFR (Homo sapiens, UniProt P00533); test: Inhibition of EGFR (Her1) kinase; conditions: Table 3
T3 construct: purchased Upstate Company
Description: as §1, §2
as §3, with “10 μl of 6 mM EDTA was added to each well and stirred for 5 mins to terminate the kinase reaction. For a measurement of phosphorylation degree, 50 μl of a solution containing anti-phosphotyrosine antibody and fluorescein-labeled phosphopeptide was added to the reaction mixture, followed by incubating for 30 mins.” left out, “Lifesciences). […]” for “Lifesciences).”

Met = biological target: T4, Met (Homo sapiens, UniProt P08581); test: Inhibition of Met kinase; conditions: Table 3
T4 construct: purchased Upstate Company
T4 sequence (P08581 25-1390): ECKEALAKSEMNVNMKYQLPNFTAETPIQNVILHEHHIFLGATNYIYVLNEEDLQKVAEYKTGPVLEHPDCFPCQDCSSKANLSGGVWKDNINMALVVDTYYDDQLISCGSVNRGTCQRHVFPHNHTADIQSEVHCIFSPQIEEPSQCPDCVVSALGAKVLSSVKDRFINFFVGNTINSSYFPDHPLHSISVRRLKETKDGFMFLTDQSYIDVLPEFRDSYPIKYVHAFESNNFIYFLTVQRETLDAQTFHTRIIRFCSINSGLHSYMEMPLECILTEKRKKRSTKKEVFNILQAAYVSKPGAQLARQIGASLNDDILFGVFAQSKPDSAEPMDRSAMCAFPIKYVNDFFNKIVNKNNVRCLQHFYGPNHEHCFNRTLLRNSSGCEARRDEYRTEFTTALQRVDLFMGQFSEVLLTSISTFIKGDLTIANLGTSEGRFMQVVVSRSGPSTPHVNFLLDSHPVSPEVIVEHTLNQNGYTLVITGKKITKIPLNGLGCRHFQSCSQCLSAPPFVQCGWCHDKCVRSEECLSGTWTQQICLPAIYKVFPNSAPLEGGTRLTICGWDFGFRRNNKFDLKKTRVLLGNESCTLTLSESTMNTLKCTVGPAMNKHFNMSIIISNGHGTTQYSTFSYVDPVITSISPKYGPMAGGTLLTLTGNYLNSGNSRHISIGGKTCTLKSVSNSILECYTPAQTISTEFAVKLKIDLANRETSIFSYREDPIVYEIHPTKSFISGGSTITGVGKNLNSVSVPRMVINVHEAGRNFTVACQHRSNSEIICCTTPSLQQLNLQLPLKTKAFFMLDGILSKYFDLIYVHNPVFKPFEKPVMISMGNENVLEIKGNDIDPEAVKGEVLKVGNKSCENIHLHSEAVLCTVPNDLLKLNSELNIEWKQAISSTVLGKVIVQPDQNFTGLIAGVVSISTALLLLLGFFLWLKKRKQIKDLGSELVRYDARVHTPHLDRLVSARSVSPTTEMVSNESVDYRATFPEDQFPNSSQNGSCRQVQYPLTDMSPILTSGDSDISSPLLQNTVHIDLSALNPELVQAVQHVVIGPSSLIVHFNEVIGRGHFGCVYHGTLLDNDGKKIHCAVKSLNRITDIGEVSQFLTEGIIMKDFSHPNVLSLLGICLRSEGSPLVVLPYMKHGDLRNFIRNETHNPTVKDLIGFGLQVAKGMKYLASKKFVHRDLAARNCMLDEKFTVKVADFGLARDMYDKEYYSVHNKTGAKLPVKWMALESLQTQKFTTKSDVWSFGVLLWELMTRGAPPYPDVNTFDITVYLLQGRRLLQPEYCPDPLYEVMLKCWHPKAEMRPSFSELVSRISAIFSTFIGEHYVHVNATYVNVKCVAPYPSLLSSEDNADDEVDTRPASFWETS
Description: as §1, §2
as §3, with “10 μl of 6 mM EDTA was added to each well and stirred for 5 mins to terminate the kinase reaction. For a measurement of phosphorylation degree, 50 μl of a solution containing anti-phosphotyrosine antibody and fluorescein-labeled phosphopeptide was added to the reaction mixture, followed by incubating for 30 mins.” left out, “Lifesciences). […]” for “Lifesciences).”

Ret = biological target: T5, Ret (Homo sapiens, UniProt P07949); test: Inhibition of Ret kinase; conditions: Table 3
T5 construct: purchased Upstate Company
Description: as §1, §2
as §3, with “10 μl of 6 mM EDTA was added to each well and stirred for 5 mins to terminate the kinase reaction. For a measurement of phosphorylation degree, 50 μl of a solution containing anti-phosphotyrosine antibody and fluorescein-labeled phosphopeptide was added to the reaction mixture, followed by incubating for 30 mins.” left out, “Lifesciences). […]” for “Lifesciences).”

Tie2 = biological target: T6, Tie2 (Homo sapiens, UniProt Q02763); test: Inhibition of Tie2 kinase; conditions: Table 3
T6 construct: purchased Upstate Company
Description: as §1, §2
as §3, with “10 μl of 6 mM EDTA was added to each well and stirred for 5 mins to terminate the kinase reaction. For a measurement of phosphorylation degree, 50 μl of a solution containing anti-phosphotyrosine antibody and fluorescein-labeled phosphopeptide was added to the reaction mixture, followed by incubating for 30 mins.” left out, “Lifesciences). […]” for “Lifesciences).”

Fms = biological target: T7, Fms (Homo sapiens, UniProt P07333); test: Inhibition of Fms kinase; conditions: Table 3
T7 construct: purchased Upstate Company
Description: as §1, §2
as §3, with “10 μl of 6 mM EDTA was added to each well and stirred for 5 mins to terminate the kinase reaction. For a measurement of phosphorylation degree, 50 μl of a solution containing anti-phosphotyrosine antibody and fluorescein-labeled phosphopeptide was added to the reaction mixture, followed by incubating for 30 mins.” left out, “Lifesciences). […]” for “Lifesciences).”

Lyn = biological target: T8, Lyn (Homo sapiens, UniProt P07948); test: Inhibition of Lyn kinase (Profluor kit procedure); conditions: Table 3
T8 construct: purchased Upstate Company
Description: as §1, §2
(§5) An inhibition activity of Src kinase was determined with an Src kinase assay kit (Profluor™, Promega). Each of kinases to be measured was diluted to a concentration of 25 ng per one reaction with the kinase buffer provided in the kit. Also, each of the test compounds was serially diluted to a concentration starting from 100 μM up to 0.1 nM with 10% DMSO. 5 μl of the serially diluted solution of each of the test compounds and 20 μl of the diluted kinase were added to each well of a 96-well microplate, and the plate was incubated at room temperature for 10 mins. 25 μl of ATP was added thereto, followed by incubating for 1 hour, and a protease solution was added thereto, followed by incubating for 1 hour. 25 μl of a stabilizer solution was added to the resulting solution, followed by incubating in dark for 5 mins. The absorbance of each well was determined with a fluorescence reader (Molecular Devices) (excitation wavelength: 485 nm, emission wavelength: 530 nm). […]

Kit = biological target: T9, Kit (Homo sapiens, UniProt P10721); test: Inhibition of Kit kinase; conditions: Table 3
T9 construct: purchased Upstate Company
T9 sequence (P10721 26-976, species assumed): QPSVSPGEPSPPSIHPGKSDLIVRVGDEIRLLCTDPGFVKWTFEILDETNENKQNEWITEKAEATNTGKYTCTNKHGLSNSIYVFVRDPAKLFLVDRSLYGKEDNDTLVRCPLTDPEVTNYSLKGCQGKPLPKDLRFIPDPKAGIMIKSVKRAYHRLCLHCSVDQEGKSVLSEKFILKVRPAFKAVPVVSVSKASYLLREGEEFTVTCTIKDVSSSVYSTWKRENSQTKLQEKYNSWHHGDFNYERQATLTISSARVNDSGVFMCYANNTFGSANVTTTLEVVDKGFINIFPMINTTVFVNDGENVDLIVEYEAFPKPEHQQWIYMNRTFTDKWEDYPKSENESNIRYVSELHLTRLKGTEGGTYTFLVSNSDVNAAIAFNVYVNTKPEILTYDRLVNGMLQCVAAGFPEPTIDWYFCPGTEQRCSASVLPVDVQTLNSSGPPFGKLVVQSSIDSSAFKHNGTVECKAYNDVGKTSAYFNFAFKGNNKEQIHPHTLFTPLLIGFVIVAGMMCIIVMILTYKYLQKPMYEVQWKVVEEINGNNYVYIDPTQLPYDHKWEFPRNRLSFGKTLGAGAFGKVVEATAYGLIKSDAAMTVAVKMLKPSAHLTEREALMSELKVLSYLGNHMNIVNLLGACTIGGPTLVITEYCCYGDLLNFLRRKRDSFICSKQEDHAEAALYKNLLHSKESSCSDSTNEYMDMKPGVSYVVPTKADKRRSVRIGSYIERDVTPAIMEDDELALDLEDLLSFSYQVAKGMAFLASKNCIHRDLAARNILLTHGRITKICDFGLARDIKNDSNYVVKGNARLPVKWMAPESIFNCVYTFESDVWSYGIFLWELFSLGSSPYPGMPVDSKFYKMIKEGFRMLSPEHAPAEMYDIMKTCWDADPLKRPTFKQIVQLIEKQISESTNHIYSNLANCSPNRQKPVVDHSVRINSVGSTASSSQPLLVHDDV
Description: as §1, §2
as §3, with “10 μl of 6 mM EDTA was added to each well and stirred for 5 mins to terminate the kinase reaction. For a measurement of phosphorylation degree, 50 μl of a solution containing anti-phosphotyrosine antibody and fluorescein-labeled phosphopeptide was added to the reaction mixture, followed by incubating for 30 mins.” left out, “Lifesciences). […]” for “Lifesciences).”

Her2 = biological target: T10, Her2 (Homo sapiens, UniProt P04626); test: Inhibition of Her2 kinase; conditions: Table 3
T10 construct: purchased Upstate Company
Description: as §1, §2
as §3, with “10 μl of 6 mM EDTA was added to each well and stirred for 5 mins to terminate the kinase reaction. For a measurement of phosphorylation degree, 50 μl of a solution containing anti-phosphotyrosine antibody and fluorescein-labeled phosphopeptide was added to the reaction mixture, followed by incubating for 30 mins.” left out, “Lifesciences). […]” for “Lifesciences).”

PDGFRβ = biological target: T11, PDGFRβ (Homo sapiens, UniProt P09619); test: Inhibition of PDGFRβ kinase; conditions: Table 3
T11 construct: purchased Upstate Company
Description: as §1, §2
as §3, with “10 μl of 6 mM EDTA was added to each well and stirred for 5 mins to terminate the kinase reaction. For a measurement of phosphorylation degree, 50 μl of a solution containing anti-phosphotyrosine antibody and fluorescein-labeled phosphopeptide was added to the reaction mixture, followed by incubating for 30 mins.” left out, “Lifesciences). […]” for “Lifesciences).”

Src = biological target: T12, Src (Homo sapiens, UniProt P12931); test: Inhibition of Src kinase (Profluor Src kinase assay kit); conditions: Table 3
T12 construct: purchased Upstate Company
Description: as §1, §2, §5

Lck = biological target: T13, Lck (Homo sapiens, UniProt P06239); test: Inhibition of Lck kinase (Profluor kit procedure); conditions: Table 3
T13 construct: purchased Upstate Company
Description: as §1, §2, §5

KDR = biological target: T14, KDR (Homo sapiens, UniProt P35968); test: Inhibition of KDR kinase; conditions: Table 3
T14 construct: purchased Upstate Company
Description: as §1, §2
as §3, with “10 μl of 6 mM EDTA was added to each well and stirred for 5 mins to terminate the kinase reaction. For a measurement of phosphorylation degree, 50 μl of a solution containing anti-phosphotyrosine antibody and fluorescein-labeled phosphopeptide was added to the reaction mixture, followed by incubating for 30 mins.” left out, “Lifesciences). […]” for “Lifesciences).”

Flt3 = biological target: T15, Flt3 (Homo sapiens, UniProt P36888); test: Inhibition of Flt3 kinase; conditions: Table 3
T15 construct: purchased Upstate Company
T15 sequence (P36888 27-993): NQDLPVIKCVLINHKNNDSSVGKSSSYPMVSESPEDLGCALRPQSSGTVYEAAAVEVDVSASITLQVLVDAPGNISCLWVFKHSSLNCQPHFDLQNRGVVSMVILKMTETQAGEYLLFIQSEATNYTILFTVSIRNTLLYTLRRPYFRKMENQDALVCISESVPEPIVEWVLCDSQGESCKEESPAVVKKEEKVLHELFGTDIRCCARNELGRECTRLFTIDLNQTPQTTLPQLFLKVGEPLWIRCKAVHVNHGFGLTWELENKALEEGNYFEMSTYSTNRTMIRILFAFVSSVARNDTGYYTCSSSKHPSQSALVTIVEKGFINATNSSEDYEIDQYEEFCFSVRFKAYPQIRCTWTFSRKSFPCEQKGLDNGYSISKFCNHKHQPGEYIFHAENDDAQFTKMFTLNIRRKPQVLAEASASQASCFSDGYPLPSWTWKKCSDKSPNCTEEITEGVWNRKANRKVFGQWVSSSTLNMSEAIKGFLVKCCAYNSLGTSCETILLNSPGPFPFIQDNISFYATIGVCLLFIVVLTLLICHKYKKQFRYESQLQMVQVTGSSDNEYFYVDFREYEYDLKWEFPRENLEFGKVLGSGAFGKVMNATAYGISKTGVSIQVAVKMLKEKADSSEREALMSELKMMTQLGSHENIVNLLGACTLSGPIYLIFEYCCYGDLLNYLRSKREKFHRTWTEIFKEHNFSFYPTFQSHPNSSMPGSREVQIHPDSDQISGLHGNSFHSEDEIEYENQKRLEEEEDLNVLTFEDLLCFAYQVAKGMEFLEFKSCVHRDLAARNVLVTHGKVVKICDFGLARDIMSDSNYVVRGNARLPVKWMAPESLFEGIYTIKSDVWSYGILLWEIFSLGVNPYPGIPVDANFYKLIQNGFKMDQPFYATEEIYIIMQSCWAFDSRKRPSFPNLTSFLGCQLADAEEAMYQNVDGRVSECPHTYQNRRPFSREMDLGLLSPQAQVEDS
Description: as §1, §2
as §3, with “10 μl of 6 mM EDTA was added to each well and stirred for 5 mins to terminate the kinase reaction. For a measurement of phosphorylation degree, 50 μl of a solution containing anti-phosphotyrosine antibody and fluorescein-labeled phosphopeptide was added to the reaction mixture, followed by incubating for 30 mins.” left out, “Lifesciences). […]” for “Lifesciences).”

Fyn = biological target: T16, Fyn (Homo sapiens, UniProt P06241); test: Inhibition of Fyn kinase (Profluor kit procedure); conditions: Table 3
T16 construct: purchased Upstate Company
Description: as §1, §2, §5

PDGFRα = biological target: T17, PDGFRα (Homo sapiens, UniProt P16234); test: Inhibition of PDGFRα kinase; conditions: Table 3
T17 construct: purchased Upstate Company
T17 sequence (P16234 24-1089, species assumed): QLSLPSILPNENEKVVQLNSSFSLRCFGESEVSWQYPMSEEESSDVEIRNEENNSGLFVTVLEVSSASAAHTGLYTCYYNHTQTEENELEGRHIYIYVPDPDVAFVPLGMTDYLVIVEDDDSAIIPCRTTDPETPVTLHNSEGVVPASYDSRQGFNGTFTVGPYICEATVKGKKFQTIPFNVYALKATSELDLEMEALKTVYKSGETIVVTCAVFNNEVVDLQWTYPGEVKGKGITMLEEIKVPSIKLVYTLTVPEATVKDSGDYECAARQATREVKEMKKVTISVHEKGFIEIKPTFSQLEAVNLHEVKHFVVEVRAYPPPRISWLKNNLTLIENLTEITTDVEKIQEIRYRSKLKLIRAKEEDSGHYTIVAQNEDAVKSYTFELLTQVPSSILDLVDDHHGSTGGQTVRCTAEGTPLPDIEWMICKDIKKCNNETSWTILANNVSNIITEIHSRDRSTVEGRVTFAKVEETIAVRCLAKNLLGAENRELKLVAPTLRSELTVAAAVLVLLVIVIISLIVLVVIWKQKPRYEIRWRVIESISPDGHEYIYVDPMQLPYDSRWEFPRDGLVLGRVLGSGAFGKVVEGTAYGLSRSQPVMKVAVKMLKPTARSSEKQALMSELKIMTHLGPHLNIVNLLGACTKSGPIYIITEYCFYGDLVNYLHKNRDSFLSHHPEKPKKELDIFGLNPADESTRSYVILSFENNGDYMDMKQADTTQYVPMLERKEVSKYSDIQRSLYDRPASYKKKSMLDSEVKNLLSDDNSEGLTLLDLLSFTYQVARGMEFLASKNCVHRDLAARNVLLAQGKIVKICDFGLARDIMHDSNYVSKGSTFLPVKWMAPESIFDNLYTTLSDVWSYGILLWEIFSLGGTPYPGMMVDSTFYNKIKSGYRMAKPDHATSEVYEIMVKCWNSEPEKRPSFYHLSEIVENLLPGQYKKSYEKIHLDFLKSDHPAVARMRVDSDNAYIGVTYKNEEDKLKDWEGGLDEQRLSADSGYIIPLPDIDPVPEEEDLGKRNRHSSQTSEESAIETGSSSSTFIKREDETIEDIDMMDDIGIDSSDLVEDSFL
Description: as §1, §2
as §3, with “10 μl of 6 mM EDTA was added to each well and stirred for 5 mins to terminate the kinase reaction. For a measurement of phosphorylation degree, 50 μl of a solution containing anti-phosphotyrosine antibody and fluorescein-labeled phosphopeptide was added to the reaction mixture, followed by incubating for 30 mins.” left out, “Lifesciences). […]” for “Lifesciences).”

Flt1 = biological target: T18, Flt1 (Homo sapiens, UniProt P17948); test: Inhibition of Flt1 kinase; conditions: Table 3
T18 construct: purchased Upstate Company
Description: as §1, §2
as §3, with “10 μl of 6 mM EDTA was added to each well and stirred for 5 mins to terminate the kinase reaction. For a measurement of phosphorylation degree, 50 μl of a solution containing anti-phosphotyrosine antibody and fluorescein-labeled phosphopeptide was added to the reaction mixture, followed by incubating for 30 mins.” left out, “Lifesciences). […]” for “Lifesciences).”

[1] = Table 2, class symbols, read-out: FGFR1 IC50
[2] = Table 2, class symbols, read-out: FGFR3 IC50

T1 sequence (P11362 22-822, species assumed): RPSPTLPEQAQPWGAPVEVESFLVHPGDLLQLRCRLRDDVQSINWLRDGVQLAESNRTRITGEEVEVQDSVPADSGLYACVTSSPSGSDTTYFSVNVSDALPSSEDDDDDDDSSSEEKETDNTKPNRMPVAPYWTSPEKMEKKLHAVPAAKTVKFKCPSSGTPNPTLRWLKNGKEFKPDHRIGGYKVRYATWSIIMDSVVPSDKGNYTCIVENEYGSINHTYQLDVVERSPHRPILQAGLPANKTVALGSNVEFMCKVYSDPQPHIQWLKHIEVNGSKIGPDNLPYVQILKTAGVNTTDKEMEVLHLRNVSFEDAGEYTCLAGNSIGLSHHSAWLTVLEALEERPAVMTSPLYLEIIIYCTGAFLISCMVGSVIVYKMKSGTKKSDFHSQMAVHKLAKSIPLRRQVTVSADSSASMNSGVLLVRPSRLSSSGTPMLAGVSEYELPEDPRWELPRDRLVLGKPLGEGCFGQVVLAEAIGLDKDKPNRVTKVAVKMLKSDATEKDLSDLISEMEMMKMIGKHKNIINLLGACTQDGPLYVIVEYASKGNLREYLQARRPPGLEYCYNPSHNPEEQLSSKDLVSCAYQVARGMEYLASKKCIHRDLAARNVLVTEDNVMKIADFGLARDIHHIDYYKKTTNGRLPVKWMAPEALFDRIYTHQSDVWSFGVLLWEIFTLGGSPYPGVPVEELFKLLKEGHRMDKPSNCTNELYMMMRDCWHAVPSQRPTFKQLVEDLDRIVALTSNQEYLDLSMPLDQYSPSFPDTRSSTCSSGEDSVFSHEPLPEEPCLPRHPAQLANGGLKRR

IC50 (FGFR1; [1]): 1000 to 5000 nM | IC50 (FGFR3; [2]): 1000 to 5000 nM
SMILES: CCOC(=O)CNc1ncnc2c(C(=O)Nc3c(Cl)c(OC)cc(OC)c3Cl)csc12 [Example 302, ethyl 2-(7-(2,6-dichloro-3,5-dimethoxyphenyl-carbamoyl)thieno[3,2-d]pyrimidin-4-ylamino)acetate]

IC50 (FGFR1; [1]): 100 to 500 nM | IC50 (FGFR3; [2]): 500 to 1000 nM
SMILES: CCN(CC)CCOc1ccc(Nc2ncnc3c(C(=O)Nc4c(Cl)c(OC)cc(OC)c4Cl)csc23)cc1 [Example 196, N-(2,6-dichloro-3,5-dimethoxyphenyl)-4-(4-(2-(diethylamino)ethoxy)phenylamino) thieno[3,2-d]pyrimidine-7-carboxamide]

IC50 (FGFR1; [1]): 1000 to 5000 nM | IC50 (FGFR3; [2]): 1000 to 5000 nM
SMILES: COc1cc(OC)c(Cl)c(NC(=O)c2csc3c(NCCNc4ccccc4)ncnc23)c1Cl [Example 304, N-(2,6-dichloro-3,5-dimethoxyphenyl)-4-(2-(phenylamino)ethyl-amino)thieno[3,2-d]pyrimidine-7-carboxamide]

IC50 (EGFR): > 1000 nM | IC50 (Met): > 1000 nM | IC50 (Ret): > 1000 nM | IC50 (Tie2): > 1000 nM | IC50 (Fms): < 200 nM | IC50 (Lyn): > 1000 nM | IC50 (Kit): > 1000 nM | IC50 (Her2): > 1000 nM | IC50 (PDGFRβ): > 1000 nM | IC50 (Src): > 1000 nM | IC50 (Lck): > 1000 nM | IC50 (KDR): < 200 nM | IC50 (Flt3): > 1000 nM | IC50 (FGFR1; Table 3, read-out: IC50 (nM) FGFR1): < 100 nM | IC50 (Fyn): > 1000 nM | IC50 (PDGFRα): > 1000 nM | IC50 (FGFR3; Table 3, read-out: IC50 (nM) FGFR3): < 100 nM | IC50 (Flt1): > 1000 nM
SMILES: COc1cc(OC)c(Cl)c(NC(=O)c2csc3c(NC(=O)C4CC4)ncnc23)c1Cl [Example 177, 4-(cyclopropanecarbox-amido)-N-(2,6-dichloro-3,5-dimethoxyphenyl) thieno[3,2-d]pyrimidine-7-carboxamide]

Reference: patent publication US10112954B2, “Bicyclic heteroaryl derivatives having inhibitory activity for protein kinase” (HANMI PHARM. CO., LTD., priority 2010, dated 2018)
